Experimental findings from patent US20140275007A1, “OXAMAZIN ANTIBIOTICS” (priority 2013, published 2014) are described below.

Format in all cases: cell-based, Escherichia coli
The subject of experiment [1] is E. coli strain ECM6694 (pUCP24::CTX-M-15). Put plainly: MIC, broth microdilution, isogenic E. coli panel, CTX-M-15 strain. Conditions: for Ratio of MIC vs vector alone: strain ECM6694, pUCP24::CTX-M-15 vs ECM6704. The procedure: (§1) Potency and spectrum of compound 1 was determined using the panel of isogenic engineered strains, each containing a plasmid carrying a cloned gene expressing a β-lactamase enzyme. The strain that contained the empty vector was included to evaluate the impact of individual β-lactamases on microbiological activity of compound 1 vs comparator antibiotics. The host strain was wild-type strain of Escherichia coli, ECM5497. The vector plasmid was pUCP24. […] MIC was assessed using broth microdilution method as recommended by the NCCLS (National Committee for Clinical Laboratory Standards. Methods for Dilution Antimicrobial Susceptibility Tests for Bacteria that Grow Aerobically—4th Edition. Approved Standard NCCLS Document M7-A4, Vol. 17, No. 2, NCCLS, Wayne, Pa., January 1997). In this assay multiple dilutions of drugs are being tested for the ability to inhibit growth of the test bacterial strains. The MIC assay is performed in microtiter plates. Antibiotics are diluted two-fold in the x axis, each column containing a single concentration of antibiotic. The assay is performed in MHB with a final bacterial inoculum of 5×10^5 CFU/mL (from an early-log phase culture). Microtiter plates are incubated during 20 h at 35° C. and are read using a microtiterplate reader (Molecular Devices) at 650 nm as well as visual observation using a microtiter plate reading mirror.

The subject of experiment [2] is E. coli strain ECM6711 (pUCP24::VIM-1). Put plainly: MIC, broth microdilution, isogenic E. coli panel, VIM-1 strain. Conditions: for Ratio of MIC vs vector alone: strain ECM6711, pUCP24::VIM-1 vs ECM6704. How it is done: as §1
(In broth dilution the organism is exposed to a series of concentrations in liquid medium.)

Experiment [3] deals with E. coli strain ECM6716 (pUCP24::OXA-48). The experiment can be described thus: MIC, broth microdilution, isogenic E. coli panel, OXA-48 strain. Particulars: for Ratio of MIC vs vector alone: strain ECM6716, pUCP24::OXA-48 vs ECM6704. The procedure: as §1
For experiment [4], the system named is E. coli strain ECM6715 (pUCP24::AmpC). The experiment can be described thus: MIC, broth microdilution, isogenic E. coli panel, AmpC strain. Particulars: for Ratio of MIC vs vector alone: strain ECM6715, pUCP24::AmpC vs ECM6704. The procedure:
as §1

Experiment [5] concerns E. coli strain ECM6704 (pUCP24, vector). Put plainly: MIC, broth microdilution, isogenic E. coli panel, empty vector strain. Conditions: for Ratio of MIC vs vector alone: strain ECM6704, pUCP24, vector (reference strain itself). How it is done:
as §1

For experiment [6], the system named is E. coli strain ECM6706 (pUCP24::SME-2). Put plainly: MIC, broth microdilution, isogenic E. coli panel, SME-2 strain. Conditions: for Ratio of MIC vs vector alone: strain ECM6706, pUCP24::SME-2 vs ECM6704. How it is done:
as §1

Experiment [7] has as its system E. coli strain ECM6696 (pUCP24::NMC-A). Put plainly: MIC, broth microdilution, isogenic E. coli panel, NMC-A strain. Conditions: for Ratio of MIC vs vector alone: strain ECM6696, pUCP24::NMC-A vs ECM6704. The procedure:
as §1

Experiment [8] concerns E. coli strain ECM6703 (pUCP24::NDM-1). Put plainly: MIC, broth microdilution, isogenic E. coli panel, NDM-1 strain. Conditions: for Ratio of MIC vs vector alone: strain ECM6703, pUCP24::NDM-1 vs ECM6704. The procedure:
as §1

The subject of experiment [9] is E. coli strain ECM6713 (pUCP24::TEM-10). Put plainly: MIC, broth microdilution, isogenic E. coli panel, TEM-10 strain. Conditions: for Ratio of MIC vs vector alone: strain ECM6713, pUCP24::TEM-10 vs ECM6704. The procedure: as §1
Experiment [10] concerns E. coli strain ECM6701 (pUCP24::KPC-2). The experiment can be described thus: microbe, parasite or virus in culture. Particulars: for Ratio of MIC vs vector alone: strain ECM6701, pUCP24::KPC-2 vs ECM6704. The procedure: as §1
Experiment [11] relates to E. coli strain ECM6718 (pUCP24::SHV-5). The experiment can be described thus: microbe, parasite or virus in culture. Particulars: for Ratio of MIC vs vector alone: strain ECM6718, pUCP24::SHV-5 vs ECM6704. How it is done: as §1
In experiment [12] the test system is E. coli strains expressing individual β-lactamases. Put plainly: Impact of β-lactamases on microbiological activity, whole panel of isogenic engineered strains. How it is done: as §1
Table 2 contains MICs of compound 1 and comparator antibiotics for each test strain and Table 3 contains MIC ratios vs vector only control (strain ECM6704). β-Lactamases present in the test panel belonged to all four currently described classes of enzymes, A, B, C and D. These β-lactamases also represent the major groups of the most relevant enzymes.

Where [13] appears, read: strain ECM6694, pUCP24::CTX-M-15, class A, ESBL.
Where [14] appears, read: strain ECM6711, pUCP24::VIM-1, class B.
Where [15] appears, read: strain ECM6715, pUCP24::AmpC, class C.
Where [16] appears, read: strain ECM6701, pUCP24::KPC-2, class A, carbapenemase.
Setting [17] is: strain ECM6718, pUCP24::SHV-5, class A, ESBL.
Setting [18] is: strain ECM6706, pUCP24::SME-2, class A, carbapenemase.
Setting [19] is: strain ECM6696, pUCP24::NMC-A, class A, carbapenemase.
The mark [20] stands for this setting: strain ECM6703, pUCP24::NDM-1, class B.
[21] abbreviates: strain ECM6713, pUCP24::TEM-10, class A, ESBL.

In brackets after ≈: the same amount, converted by molar mass.

As to `C[C@H]1[C@H](NC(=O)/C(=N\OC(C)(C)C(=O)O)c2csc(N)n2)C(=O)N1S(=O)(=O)O` [AZTREONAM, aztreonam], the MIC in experiment [1] (Escherichia coli) was 32 µg/mL (≈ 73.5 µM); in experiment [2] (Escherichia coli), at most 0.06 µg/mL; in experiment [3] (Escherichia coli), 0.125 µg/mL (≈ 0.287 µM); in experiment [4] (Escherichia coli) it was 8 µg/mL (≈ 18.4 µM); in [5] (Escherichia coli, 20 h), 0.125 µg/mL (≈ 0.287 µM); in experiment [6] (Escherichia coli), over 64 µg/mL. Also, the results for the MIC in experiment [7] (Escherichia coli), in [8] (Escherichia coli) and in experiment [9] (Escherichia coli) were 64 µg/mL (≈ 147 µM), at most 0.06 µg/mL and over 64 µg/mL, respectively.
Take `NC(=O)OC[C@@H]1[C@H](NC(=O)/C(=N\OCC(=O)O)c2csc(N)n2)C(=O)N1S(=O)(=O)O` [CARUMONAM, carumonam]: the MIC is 0.125 µg/mL (≈ 0.268 µM) in experiment [1] (Escherichia coli); at most 0.06 µg/mL in experiment [2] (Escherichia coli); at most 0.06 µg/mL in experiment [3] (Escherichia coli); 4 µg/mL (≈ 8.58 µM) in experiment [4] (Escherichia coli); at most 0.06 µg/mL in experiment [5] (Escherichia coli, 20 h); 0.25 µg/mL (≈ 0.536 µM) in experiment [10] (Escherichia coli). Also, the MIC in experiment [11] (Escherichia coli) is 2 µg/mL (≈ 4.29 µM); in experiment [6] (Escherichia coli) it was 0.125 µg/mL (≈ 0.268 µM); in experiment [7] (Escherichia coli), 0.25 µg/mL (≈ 0.536 µM); in experiment [8] (Escherichia coli) it was at most 0.06 µg/mL; in [9] (Escherichia coli), 4 µg/mL (≈ 8.58 µM). Moreover, the “Ratio of MIC vs vector alone” value in experiment [7] was 4 mg/L.
Take `CC(C)(O/N=C(\C(=O)N[C@@H]1C(=O)N2C(C(=O)[O-])=C(C[n+]3ccccc3)CS[C@H]12)c1csc(N)n1)C(=O)O` [CEFTAZIDIME, ceftazidime]: the MIC in experiment [1] (setting [13]) was 16 µg/mL (≈ 29.3 µM); in experiment [2] (setting [14]), over 64 µg/mL; in experiment [4] (setting [15]), 16 µg/mL (≈ 29.3 µM); in experiment [10] (setting [16]) it was 4 µg/mL (≈ 7.32 µM); in experiment [11] (setting [17]), 8 µg/mL (≈ 14.6 µM); in experiment [6] (setting [18]), 1 µg/mL (≈ 1.83 µM). The MIC in [7] (setting [19]) is 0.5 µg/mL (≈ 0.915 µM); in [8] (setting [20]), over 64 µg/mL; in experiment [9] (setting [21]), 65 µg/mL (≈ 119 µM).
In the case of `CC1(C)[C@H](NC(=O)/C(=N\OCC(=O)O)c2csc(N)n2)C(=O)N1OCC(=O)O` [Compound 1, (S,Z)-2-(1-(2-aminothiazol-4-yl)-2-(1-(carboxymethoxy)-2,2-dimethyl-4-oxoazetidin-3-ylamino)-2-oxoethylideneaminooxy)acetic acid], the MIC in experiment [1] (Escherichia coli) was found to be 1 µg/mL (≈ 2.41 µM); in experiment [2] (Escherichia coli) it was 1 µg/mL (≈ 2.41 µM); in experiment [3] (Escherichia coli), 2 µg/mL (≈ 4.81 µM); in experiment [4] (Escherichia coli), 2 µg/mL (≈ 4.81 µM); in experiment [5] (Escherichia coli, 20 h), 2 µg/mL (≈ 4.81 µM); in [10] (Escherichia coli) it was 1 µg/mL (≈ 2.41 µM). For the same molecule, the MIC in experiment [11] (Escherichia coli) was found to be 4 µg/mL (≈ 9.63 µM); in experiment [6] (Escherichia coli), 1 µg/mL (≈ 2.41 µM); in [7] (Escherichia coli), 1 µg/mL (≈ 2.41 µM); in experiment [8] (Escherichia coli), 1 µg/mL (≈ 2.41 µM); in [9] (Escherichia coli), 16 µg/mL (≈ 38.5 µM). Besides, the “Ratio of MIC vs vector alone” value was 0.5 in experiment [1]; 0.5 in [2]; 1 in experiment [3]; 1 in experiment [4]; 1 in experiment [5]; 0.5 in experiment [10]. Besides, the “Ratio of MIC vs vector alone” value is listed as 2 in experiment [11]; 0.5 in experiment [6]; 0.5 mg/L in experiment [7]; 0.5 in [8]; 8 in experiment [9]. In [12] (class B or class D β-lactamases), the “Effect of class B or class D enzymes on potency” value was “not affected”. Also, the “Effect of the majority of class A and class C enzymes on potency” value in experiment [12] (majority of class A and class C β-lactamases) is reported as “not affected”. In experiment [12] (whole panel, vs aztreonam, tigemonam, carumonam, ceftazidime), the “Effect of β-lactamases on potency, compared with the other β-lactams tested” value is given as “least affected”. The “Effect of TEM-10 on activity” value in experiment [9] (only enzyme in the panel with an effect, much less than on other monobactams or ceftazidime) is “some effect”.
As to `CC1(C)[C@H](NC(=O)/C(=N\OCC(=O)O)c2csc(N)n2)C(=O)N1OS(=O)(=O)O` [TIGEMONAM, tigemonam], the MIC amounted to 2 µg/mL (≈ 4.57 µM) in experiment [1] (setting [13]); 0.25 µg/mL (≈ 0.572 µM) in experiment [2] (setting [14]); 0.25 µg/mL (≈ 0.572 µM) in experiment [3] (strain ECM6716, pUCP24::OXA-48, class D); 4 µg/mL (≈ 9.14 µM) in experiment [4] (setting [15]); 0.25 µg/mL (≈ 0.572 µM) in experiment [5] (strain ECM6704, plasmid pUCP24, vector, MHB, 20 h at 35° C.); 0.5 µg/mL (≈ 1.14 µM) in experiment [10] (setting [16]). Further, the MIC in experiment [11] (setting [17]) is 32 µg/mL (≈ 73.2 µM); in experiment [6] (setting [18]) it was 0.5 µg/mL (≈ 1.14 µM); in experiment [7] (setting [19]) it was 0.5 µg/mL (≈ 1.14 µM); in experiment [8] (setting [20]), 0.25 µg/mL (≈ 0.572 µM); in experiment [9] (setting [21]) it was over 64 µg/mL. The “Ratio of MIC vs vector alone” value in experiment [1] was 8; in experiment [2], 1; in experiment [3] it was 2; in [4], 16; in experiment [5] it was 1; in experiment [10], 2. Besides, the “Ratio of MIC vs vector alone” value in experiment [11] is on record as 128; in experiment [6], 2; in experiment [7], 2 mg/L; in [8], 2; in experiment [9], 256.
